Measurements as given in BindingDB's records for doi:10.1021/acs.jmedchem.5b00497 (Shandong University, 2016).
pIC50: −log10 of the molar value.

Assay: Inhibition of human recombinant CCR5 encoding an HIV-1-longterminal-repeat-regulated beta-galactosidase reporter gene expressed in human HeLaP4 cells assessed as reduction of interaction with HIV-1 gp160 expressed in CHO cells by cell-cell fusion assay

pIC50: 6.19
SMILES: Cc1nc2ccccc2n1C1CCN(CCC(c2ccccc2)c2ccccc2)CC1
